Read-outs that look alike come from different tables or passages of the source.
What was measured:
[1] = tested on: rat peritoneal mast cell; experiment: Rat peritoneal mast cell histamine release; type: cell-based
Text: Products formed by the enzyme responsible for the first step in leukotriene synthesis, 5-lipoxygenase, which is probably the target enzyme of compounds of the present invention, play a role as mediators of mast cell degranulation. One of the effects of mast cell degranulation is the release of histamine. Thus, 5-lipoxygenase inhibitors may suppress histamine release from mast cells.
In order to investigate this possibility, cells obtained from washings of the peritoneal cavity of rats, were studied. These peritoneal washings contain mainly macrophages and mast cells. The mast cells were passively sensitized with IgE-antibodies to ovalbumin, and then challenged with the antigen, ovalbumin, to induce histamine release. Alternatively, the unsensitized mast cells were exposed to an […], compound 48/80*, which induces histamine release independently of immunologic mechanisms. Histamine released to the medium after degranulation of the peritoneal mast cells was measured by a fluorometric method.
* (the condensation product of N-methyl-p-methoxyphenethylamine with formaldehyde)

[2] = tested on: leukotriene D4-induced contraction of guinea-pig ileum strips; experiment: Leukotriene D4-induced contraction of isolated guinea-pig ileum strips (leukotriene antagonism); details: leukotriene D4 10^-9 M; atropine and indomethacin present
Text: Antagonism of leukotriene mediated effects at the receptor level, in addition to inhibition of leukotriene synthesis, is an additional mode of action of some of the present compounds. Obviously, this dual mechanism is of potentially great interest in preventing leukotriene mediated reactions.
Leukotriene antagonists may be identified by observing the contractions elicited in preparations of guinea-pig ileum strips suspended in physiological buffers by addition of pure leukotriene D4. The ileum strips are connected to an isotonic transducer, and the contractions are continuously recorded on a multichannel recorder.
Before addition of leukotriene D4, atropine and indomethacin are added to the buffer in order to block any cholinergic or prostaglandin-mediated contractile effects. Test compounds to be studied with respect to leukotriene antagonism are dissolved in dimethylsulphoxide (DMSO) and added to the organ bath 2 minutes prior to addition of leukotriene D4 at 10^-9 M (final concentration), the final concentration of DMSO being 0.1%, a concentration which can be shown not to affect the ileum response to leukotriene D4. The test compounds may be added at various concentrations, often beginning at 10^-6 M and then decreasing the concentration in case of antagonism.

[3] = tested on: gene expression of IL-8; experiment: Gene expression of IL-8 in endothelial cells, fibroblasts and keratinocytes stimulated by LPS or IL-1; type: cell-based
Text: (§1) These effects were obtained using submicromolar concentrations of the two compounds.

[4] = tested on: IL-8 mRNA in peripheral blood mononuclear cells (PBMC); experiment: IL-8 mRNA synthesis in LPS-stimulated peripheral blood mononuclear cells (cDNA probe); type: cell-based; details: submicromolar concentrations
Text: as §1

[5] = tested on: IL-1 release from inflammatory cells; experiment: IL-1 release from inflammatory cells; type: cell-based
Text: as §1

[6] = tested on: IL-1 mRNA in PBMC; experiment: IL-1 mRNA production in LPS-stimulated PBMC; type: cell-based
Text: as §1

[7] = tested on: asthmatic reaction (airway resistance) in guinea-pigs; experiment: Asthmatic reaction in ovalbumin-hypersensitive guinea-pigs (Konzett-Rossler); type: in vivo, guinea-pig; details: ovalbumin i.v. challenge; mepyramine, indomethacin and propranolol pretreated
Text: The other method was used to measure a physiological consequence of leukotriene release in the lungs, an asthmatic attack. Guinea-pigs hypersensitive to ovalbumin were anaestesized and mechanically ventilated with a constant airvolumen ad modum Konzett-Rossler. The animals were pretreated with mepyramine, indomethacin and propranolol to avoid interference with endogenous production of histamine, prostaglandins and β-adrenergic mechanisms, respectively. They were then challenged with an intravenous injection of ovalbumin, and the increase in airway resistance was measured by the respiratory overflow.

[8] = tested on: cyclooxygenase; experiment: Synthesis of cyclooxygenase products in A 23187-stimulated rat peritoneal cells (same assay); type: cell-based; details: final concentrations from 10^-6 M and above
Protocol: (§2) The biological activity of the present compounds was determined both in vitro and in vivo. The following method was used to assay 5-lipoxygenase activity in vitro: Rat peritoneal cells were harvested by i.p. injection of 10 ml Hank's balanced salt solution (GIBCO), cat. No. 4025, U.S.A.) containing 12.5 U/ml sodium heparin (Leo, Denmark) in anaesthesized rats. The resulting cell suspension, which mainly contained macrophages, was transferred to a test tube and washed twice by centrifugation (200 g, 10 min.) and resuspended in Hank's balanced salt solution containing 0.5% bovine serum albumin (Sigma Chem. Co., U.S.A.). The cells from 6 rats were finally resuspended in Hank's balanced salt solution containing 5 μCi (1-^14 C) arachidonic acid (The Radiochemical Centre, Amersham, U.K.) and incubated for 90 minutes at 30° C. This caused labelling of cell membrane phospholipids as radioactive arachidonic acid was incorporated in the 2-position of the glycerol moiety. Excess arachidonic acid was then removed by washing the cells twice as described above. The cells were finally resuspended in the same solution at 10^7 cells/ml. 475 μl of the cell suspension was preincubated at 37° C. for 5 minutes with either 5 μl DMSO (control tube), or 5 μl of a drug solution in DMSO. Then 20 μl of a mixture of equal volumes of the calcium ionophore A 23187, 10^-4 M in ethanol (Calbiochem, U.S.A.), and 0.5M CaCl2 in water was added. The final concentration of A 23187 was thus 2×10^-6 M, transferred to an ice-bath and centrifugated for 10 minutes at 3,000 g (4° C.). An aliquot of the supernatant was counted by liquid scintillation spectrometry in order to calculate the total radioactive release induced by A 23187 in presence of drugs. […] Radioactive spots were detected by autoradiography (AGFA-GEVAERT, Osray-RPI X-ray film, Belgium), and changes induced by drugs in the metabolic pattern of arachidonic acid were quantified by a laser densitometer (LKB, Ultroscan™ 2202, Bromma, Sweden) in combination with an integrating computer (SP 4100, SpectraPhysics, San Jose, Calif., U.S.A.). […]

[9] = tested on: 5-lipoxygenase; experiment: 5-lipoxygenase activity in vitro in A 23187-stimulated rat peritoneal cells (radiolabelled arachidonic acid metabolites); type: cell-based; details: final concentrations from 10^-6 M and above
Protocol: as §2, with “This caused labelling of cell membrane phospholipids as radioactive arachidonic acid was incorporated in the 2-position of the glycerol moiety. Excess arachidonic acid was then removed by washing the cells twice as described above. The cells were finally resuspended in the same solution at 10^7 cells/ml. 475 μl of the cell suspension was preincubated at 37° C. for 5 minutes with either 5 μl DMSO (control tube), or 5 μl of a drug solution in DMSO. Then 20 μl of a mixture of equal volumes of the calcium ionophore A 23187, 10^-4 M in ethanol (Calbiochem, U.S.A.), and 0.5M CaCl2 in water was added. The final concentration of A 23187 was thus 2×10^-6 M, transferred to an ice-bath and centrifugated for 10 minutes at 3,000 g (4° C.).” left out

[10] = tested on: release of leukotrienes; experiment: A 23187-induced leukotriene release in the peritoneal cavity of rats in vivo; design: species or system rat; details: administered prior to intraperitoneal A 23187
Protocol: Two in vivo methods were used to assess the effect of either oral or parenteral administration of the compounds to experimental animals on the release of leukotrienes. In the first method, calcium ionophore A 23187 was injected into the peritoneal cavity of adrenalectomized and anaestesized rats. 5 minutes later the cavity was washed, and the leukotrienes were extracted with ethanol and redissolved in water or buffer. The amount of leukotriene D4 released in response to A 23187 was determined by bioassay, using the contraction of an isolated guinea-pig ileum-strip as indicator. Leukotriene C4 and B4 were measured by commercially available radioimmunoassays (New England Nuclear, Dreieich, West Germany, and The Radiochemical Centre, Amersham, U. K., respectively).

[11] = antigen ovalbumin, passively sensitized mast cells, read-out: Inhibition (%) of histamine release induced by Antigen
[12] = compound 48/80, unsensitized mast cells, read-out: Inhibition (%) of histamine release induced by Cp. 48/80

SMILES	inhibition at 10 µM [1, 11] [%]	inhibition at 10 µM [1, 12] [%]	concentration at which leukotriene D4-induced contraction is inhibited [2]	further results
Clc1cc(OCc2ccncc2)ccc1NCc1ccccc1 [Ex. 78, part C, 2-Chloro-4-(4'-pyridylmethoxy)-N-benzylaniline]	96	95	submicromolar range	
O=C(O)c1ccc(CN(Cc2cccc(F)c2)c2ccc(OCc3ccc4ccccc4n3)cc2)cc1 [ETH615, 4-(2'-quinolylmethoxy)-N-(3"-fluorobenzyl)-N-(4'"-carboxybenzyl)aniline]				gene expression of IL-8 in endothelial cells ([3]; endothelial cells stimulated by LPS or IL-1): suppress the gene expression of IL-8; gene expression of IL-8 in fibroblasts ([3]; fibroblasts stimulated by LPS or IL-1): suppress the gene expression of IL-8; gene expression of IL-8 in keratinocytes ([3]; keratinocytes stimulated by LPS or IL-1): suppress the gene expression of IL-8; synthesis of IL-8 messenger RNA [4]: inhibit the synthesis of messenger RNA; IL-1 release [5]: suppression of IL-1 release; IL-1 mRNA production [6]: inhibits IL-1 mRNA production
c1ccc(CNc2cccc(OCc3ccc4ccccc4n3)c2)cc1 [Example 39, 3-(2'-Quinolylmethoxy)-N-benzylaniline]	100	95	submicromolar range	
O=C(O)c1cccc(CN(Cc2ccccc2)c2ccc(OCc3ccc4ccccc4n3)cc2)c1 [ETH647]				synthesis of IL-8 messenger RNA [4]: inhibit the synthesis of messenger RNA
CNc1ccc(OCc2ccc3ccccc3n2)cc1 [Ex. 10, part C, 4-(2'-Quinolylmethoxy)-N-methylaniline]	51	19		
CNc1cccc(OCc2ccc3ccccc3n2)c1 [11 (part C), 3-(2'-Quinolylmethoxy)-N-methylaniline]			submicromolar range	
CNc1ccc(OCc2cccnc2)cc1 [OT 3447, 4-(3'-Pyridylmethoxy)-N-methylaniline]				asthmatic reaction [7]: significantly reduced; synthesis of prostaglandin D2 [8]: not affected; synthesis of the cyclooxygenase product HHT [8]: not affected; synthesis of thromboxane B2 [8]: not affected; production of 5-HETE [9]: significant and specific decrease; production of leukotriene B4 [9]: significant and specific decrease; leukotriene B4 formation (radioimmunoassay) [10]: substantial inhibition; leukotriene C4 formation (radioimmunoassay) [10]: substantial inhibition; leukotriene D4 formation (bioassay, guinea-pig ileum-strip) [10]: substantial inhibition
NCCCCCCNc1ccc(OCc2ccc3ccccc3n2)cc1 [Ex. 66, 4-(2'-Quinolylmethoxy)-N-1"-(6"-amino-n-hexyl)aniline]	100	65		
CCCN(CCC)c1ccc(OCc2ccc3ccccc3n2)cc1 [Ex. 77, 4-(2'-Quinolylmethoxy)-N,N-di-n-propylaniline]	100	92		
c1ccc(CNc2cccc(OCc3ccccn3)c2)cc1 [Ex. 68, 3-(2'-Pyridylmethoxy)-N-benzylaniline]	45	17		
CCCCNc1cccc(OCc2ccc3ccccc3n2)c1 [Example 23, 3-(2'-Quinolylmethoxy)-N-n-butylaniline]			submicromolar range	
CCCCNc1ccc(OCc2ccc3ccccc3n2)cc1 [Example 22, 4-(2'-Quinolylmethoxy)-N-n-butylaniline]	100	75	submicromolar range	
CCCNc1ccc(OCc2ccccn2)cc1 [Ex. 70]	100	45		
c1ccc(CNc2ccc(OCc3ccc4ccccc4n3)cc2)cc1 [Ex. 38, 4-(2'-Quinolylmethoxy)-N-benzylaniline]	91	85		
CC(=O)Nc1cccc(OCc2ccc3ccccc3n2)c1 [11 (part A), 3-(2'-Quinolylmethoxy)acetanilide]			submicromolar range	
CN(C)c1cccc(OCc2ccc3ccccc3n2)c1 [Example 18, 3-(2'-Quinolylmethoxy)-N,N-dimethylaniline]			submicromolar range	
Clc1cc(NCc2ccccc2)ccc1OCc1ccncc1 [Ex. 79, part C, 3-Chloro-4-(4'-pyridylmethoxy)-N-benzylaniline]	100	95		

Source: patent US5157039A, “2-quinolinyl methoxy compounds, medical uses and intermediates therefor” (Leo Pharmaceutical Products Ltd., priority 1985, dated 1992)
